From patent US20230240290A1, “USE OF (Z)-3-HEXENYL ESTERS AND METHOD FOR PROTECTING PLANTS AGAINST PESTS” (UNIVERSITAT POLITÈCNICA DE VALÈNCIA, priority 2020, published 2023)
“Also recorded” adds a separate entry of the source.

Legend:
Tuta absoluta = conditions: in vivo
Procedure: Two consecutive experiments were performed to assess the effect of exposure to both volatiles on T. absoluta. The first experiment studied the effect on the laying of T absoluta. The selected eggs laid in the first experiment were later used in the second experiment to study the mortality of immature T. absoluta specimens developed in plants exposed to (Z)-3-hexenyl propanoate. The same three treatments described above for T. urticae were also assayed for T. absoluta. The laying of T. absoluta was assessed in 8 tomato plants (cv. Moneymaker) per treatment. Each of the plants was isolated inside a plastic cage (60×60×60 cm) (BugDorm-2) and kept in a climatic chamber at 25±2° C., 65±5% HR, 14:10 (L:D) h photoperiod following the same assay distribution described for T. urticae. Inside each cage (replica), 2 adult pairs were released from T. absoluta (males and females) and left undisturbed for 72 hours. After this time, T. absoluta adults were removed, and the number of eggs was counted.
To study the mortality of T. absoluta in the plants exposed to the 3 treatments described above, 6 T. absoluta eggs per plant were equally distributed on all the leaves with the help of a fine brush. […] Mortality of T. absoluta was assessed in 8 tomato plants (cv. Moneymaker) per treatment. […] As soon as the adults began to emerge, they were counted and removed daily from the cages.

Nesidiocoris tenuis = conditions: in vivo
Procedure: To know the behavior of the dispensers loaded with (Z)-3-hexenyl propionate under real cultivation conditions, four commercial greenhouses for tomato cv Raf located in Xilxes (Castellón province), with a history of problems with T. absoluta contamination at the end of winter, were selected. An experimental design of randomized blocks was carried out where each greenhouse was considered a block with two treatments per block and 4 repetitions per treatment. […]
Twenty plants randomly chosen by repetition were sampled weekly for 11 weeks, beginning 30 Jan. […] First, the number of leaflets infested by T. absoluta per plant was counted. Then the number of N. tenuis (adults and nymphs) throughout the apical third of each plant (leaves, flowers and shoots) was counted. Following the methodology described above, 6 samples were taken from the apical part of each plant per repetition, and these samples were immediately introduced into liquid nitrogen to quantify the expression of the PR1 and PIN2 genes (described in Example 1 and Example 2). The expression of these genes was quantified one day before, 4, and 8 weeks after hanging the dispensers in the greenhouses.

[1] = test system: NPR1 (salicylic acid pathway); assay: Transcriptional response of NPR1 in Carrizo citrange plants exposed to the volatile; format: in vivo; conditions: intact Carrizo citrange plants exposed 24 h; n=6
Tamarixia radiata = assay: Y-tube olfactometer preference, exposed vs intact Carrizo citrange plants; format: in vivo; conditions: plants exposed 24 h vs intact plants
Procedure: To assess the preference of D. citri females and the parasitoid T. radiata to Carrizo citrange plants that were previously exposed for 24 h to (Z)-3-HP in relation to intact plants, a Y-shaped olfactometer was used in the same way as that described in Example 1, and the plants were exposed to both volatiles as described above with the use of pieces of filter paper. A total of 40 valid replicates were recorded for each species for each pair of odor sources. Each individual was tested only once. […] After recording five responses, the Y-tube was rinsed with soapy water, cleaned with acetone, and allowed to dry for 5 minutes. The odor sources were later switched between the left and right side arms to minimize any spatial effect on choice. The two types of plants (intact and induced) were used only once to assess the response of 10 females and were then replaced with new plants. The Y-tube experiment was performed under the following environmental conditions: 25±1° C. and 60±10% RH.
The D. citri adults were obtained from a colony established at SWFREC (University of Florida), initially originating from citrus fruits located in their experimental plots. The parasitoids were collected in these experimental fields. Newly emerged adult females less than 5 days old were used in all the assays.

In the case of `CC/C=C\CCOC(=O)CC` [(Z)-3-hexenyl propanoate], the “Mortality from T. absoluta egg to adult” value (Tuta absoluta) is reported as “around 80%”, the “Population of the plant bug N. tenuis, treatment vs control” value (Nesidiocoris tenuis) is reported as “remained the same” and the “Transcriptional response of NPR1 compared to control” value [1] is reported as “significantly overexpressed”. The “Response of Tamarixia radiata females to exposed citrus plants” value (Tamarixia radiata) was “highly attractive; also recorded: more attractive”.
